Experimental data: patent US9474790B2, “Stable, protracted GLP-1/glucagon receptor co-agonists for medical use” (Novo Nordisk A/S, priority 2013, dated 2016)
Numbered stars: 1 amine (or outer) side, 2 acyl side, 3 side chain; on linkers, the order of the positions; unused ones are H or OH. Bridge positions count the residues as written; N and C are the ends. Square brackets hold non-standard residues; d marks the D form. Side chains are listed from the residue outwards. Peptide text beside a SMILES is read from it. I, II: the chains in the order shown. * marks the point of attachment. C18 diacid = O=C(O)CCCCCCCCCCCCCCCCC(=O)*; γGlu = O=C(O)[C@H](CCC(=O)[*:2])N[*:1]; Ac4c = NC1(C(=O)O)CCC1; AEEA = NCCOCCOCC(=O)O; Aib = CC(C)(N)C(=O)O

Assays:
[1] = Thioflavin T (ThT) fibrillation assay for physical stability; assay type: physicochemical; settings: 250 μM in 10 mM HEPES buffer, pH 7.5, 37° C., shaking 960 rpm
Procedure, shortened: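 Fibrillation was followed by ThT (1 μM) fluorescence every 20 min, 444/485 nm, for 250 μM peptide in 10 mM HEPES pH 7.5 shaken at 960 rpm, 37° C. Lag time (t0−2τ) and apparent rate constant (1/τ) come from a sigmoidal fit. Recovery is % of initial concentration remaining soluble after centrifugation and filtration (RP-HPLC).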

human GLP-1 receptor = target: T1, human GLP-1 receptor (Homo sapiens, UniProt P43220); assay: GLP-1 receptor potency, CRE luciferase reporter gene assay in BHK cells; assay type: cell-based; settings: BHK cells expressing human GLP-1 receptor, read-out: EC50 GLP-1R
T1 construct: expressed in transfected cells; host or cells: BHK cells (parent BHKTS13), clone FCW467-12A/KZ10-1, with CRE luciferase
Procedure, shortened: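 Potency as cAMP-driven firefly luciferase signal after 3 h, 37° C exposure to 10-fold dilutions (final 1×10EE-13–1×10EE-6 M). Stable hGLP-1R/CRE-luc BHK clone, 5×10EE3 cells/well, medium containing 2% ovalbumin and 0.2% Pluronic F-68; EC50 (pM) from variable-slope non-linear regression.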

T1 sequence (P43220 24-463): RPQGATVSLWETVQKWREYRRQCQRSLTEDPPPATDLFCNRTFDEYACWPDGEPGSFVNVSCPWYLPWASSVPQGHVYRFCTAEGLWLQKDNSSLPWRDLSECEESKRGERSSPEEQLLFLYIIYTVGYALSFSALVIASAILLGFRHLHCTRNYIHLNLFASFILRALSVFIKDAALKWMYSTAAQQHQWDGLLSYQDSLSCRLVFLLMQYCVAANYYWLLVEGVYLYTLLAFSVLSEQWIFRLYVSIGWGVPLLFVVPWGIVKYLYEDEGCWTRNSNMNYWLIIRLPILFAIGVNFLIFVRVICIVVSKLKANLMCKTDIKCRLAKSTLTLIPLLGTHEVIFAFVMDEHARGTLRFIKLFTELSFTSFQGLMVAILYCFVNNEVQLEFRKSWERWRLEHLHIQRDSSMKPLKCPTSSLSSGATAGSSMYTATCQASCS

THT assay Lag time (Ex. 76) [1] [h] | EC50 (human GLP-1 receptor) [nM] | SMILES
45 | 0.005 | CC(C)C[C@H](NC(=O)[C@H](Cc1ccc(O)cc1)NC(=O)[C@H](CCCCN)NC(=O)[C@H](CO)NC(=O)[C@H](CC(C)C)NC(=O)[C@H](CC(=O)O)NC(=O)[C@H](CO)NC(=O)[C@@H](NC(=O)[C@H](Cc1ccccc1)NC(=O)[C@@H](NC(=O)CNC(=O)[C@H](CCC(N)=O)NC(=O)C(C)(C)NC(=O)[C@@H](N)Cc1c[nH]cn1)[C@@H](C)O)[C@@H](C)O)C(=O)N[C@@H](CC(=O)O)C(=O)N[C@@H](C)C(=O)N[C@@H](CCCNC(=N)N)C(=O)N[C@@H](CCCNC(=N)N)C(=O)N[C@@H](C)C(=O)N[C@@H](CCCNC(=N)N)C(=O)N[C@@H](CCC(=O)O)C(=O)N[C@@H](Cc1ccccc1)C(=O)N[C@H](C(=O)N[C@@H](CCC(N)=O)C(=O)N[C@@H](Cc1c[nH]c2ccccc12)C(=O)N[C@@H](CC(C)C)C(=O)N[C@@H](CC(C)C)C(=O)N[C@@H](CCCCNC(=O)CC[C@H](NC(=O)CC[C@H](NC(=O)COCCOCCNC(=O)COCCOCCNC(=O)CC[C@H](NC(=O)CCCCCCCCCCCCCCCCC(=O)O)C(=O)O)C(=O)O)C(=O)O)C(=O)N[C@H](C(N)=O)[C@@H](C)O)C(C)C [Example 43, N^ε28-[(4S)-4-carboxy-4-[[(4S)-4-carboxy-4-[[2-[2-[2-[[2-[2-[2-[[(4S)-4-carboxy-4-(17-carboxyheptadecanoylamino)butanoyl]amino]ethoxy]ethoxy]acetyl]amino]ethoxy]ethoxy]acetyl]amino]butanoyl]amino]butanoyl]-[Aib2,Leu10,Ala16,Arg20,Glu21,Leu27,Lys28]-Glucagon amide] (H-H[Aib]QGTFTSDLSKYLDARRAREFVQWLLK([γGlu-γGlu-AEEA-AEEA-γGlu-C18 diacid])T-NH2; N-terminus assumed)
45 | 0.003 | CC(C)C[C@H](NC(=O)[C@H](Cc1ccc(O)cc1)NC(=O)[C@H](CCCCN)NC(=O)[C@H](CO)NC(=O)[C@H](CC(C)C)NC(=O)[C@H](CC(=O)O)NC(=O)[C@H](CO)NC(=O)[C@@H](NC(=O)[C@H](Cc1ccccc1)NC(=O)[C@@H](NC(=O)CNC(=O)[C@H](CCC(N)=O)NC(=O)C1(NC(=O)[C@@H](N)Cc2c[nH]cn2)CCC1)[C@@H](C)O)[C@@H](C)O)C(=O)N[C@@H](CCC(=O)O)C(=O)N[C@@H](CO)C(=O)N[C@@H](CCCNC(=N)N)C(=O)N[C@@H](CCCNC(=N)N)C(=O)N[C@@H](C)C(=O)N[C@@H](CCCNC(=N)N)C(=O)N[C@@H](CCC(=O)O)C(=O)N[C@@H](Cc1ccccc1)C(=O)N[C@H](C(=O)N[C@@H](CCC(N)=O)C(=O)N[C@@H](Cc1c[nH]c2ccccc12)C(=O)N[C@@H](CC(C)C)C(=O)N[C@@H](CC(C)C)C(=O)N[C@@H](CCCCNC(=O)CC[C@H](NC(=O)CC[C@H](NC(=O)COCCOCCNC(=O)COCCOCCNC(=O)CC[C@H](NC(=O)CCCCCCCCCCCCCCCCC(=O)O)C(=O)O)C(=O)O)C(=O)O)C(=O)N[C@H](C(N)=O)[C@@H](C)O)C(C)C [Example 44, N^ε28-[(4S)-4-carboxy-4-[[(4S)-4-carboxy-4-[[2-[2-[2-[[2-[2-[2-[[(4S)-4-carboxy-4-(17-carboxyheptadecanoylamino)butanoyl]amino]ethoxy]ethoxy]acetyl]amino]ethoxy]ethoxy]acetyl]amino]butanoyl]amino]butanoyl]-[Acb2,Leu10,Glu15,Arg20,Glu21,Leu27,Lys28]-Glucagon amide] (H-H[Ac4c]QGTFTSDLSKYLESRRAREFVQWLLK([γGlu-γGlu-AEEA-AEEA-γGlu-C18 diacid])T-NH2; N-terminus assumed)
45 | 0.017 | CC(C)C[C@H](NC(=O)[C@H](CC(=O)O)NC(=O)[C@H](CC(C)C)NC(=O)[C@H](Cc1ccc(O)cc1)NC(=O)[C@H](CCCCN)NC(=O)[C@H](CO)NC(=O)[C@H](CC(C)C)NC(=O)[C@H](CC(=O)O)NC(=O)[C@H](CO)NC(=O)[C@@H](NC(=O)[C@H](Cc1ccccc1)NC(=O)[C@@H](NC(=O)CNC(=O)[C@H](CCC(N)=O)NC(=O)C1(NC(=O)[C@@H](N)Cc2c[nH]cn2)CCC1)[C@@H](C)O)[C@@H](C)O)C(=O)N[C@@H](CCCCN)C(=O)N[C@@H](CCCNC(=N)N)C(=O)N[C@@H](C)C(=O)N[C@@H](CCCNC(=N)N)C(=O)N[C@@H](CCC(=O)O)C(=O)N[C@@H](Cc1ccccc1)C(=O)N[C@H](C(=O)N[C@@H](CCC(N)=O)C(=O)N[C@@H](Cc1c[nH]c2ccccc12)C(=O)N[C@@H](CC(C)C)C(=O)N[C@@H](CC(C)C)C(=O)N[C@@H](CCCCNC(=O)CC[C@H](NC(=O)CC[C@H](NC(=O)COCCOCCNC(=O)COCCOCCNC(=O)CC[C@H](NC(=O)CC[C@H](NC(=O)CCCCCCCCCCCCCCCCC(=O)O)C(=O)O)C(=O)O)C(=O)O)C(=O)O)C(=O)N[C@H](C(N)=O)[C@@H](C)O)C(C)C [Example 47, N^ε28-[(4S)-4-carboxy-4-[[(4S)-4-carboxy-4-[[2-[2-[2-[[2-[2-[2-[[(4S)-4-carboxy-4-[[(4S)-4-carboxy-4-(17-carboxyheptadecanoylamino)butanoyl]amino]butanoyl]amino]ethoxy]ethoxy]acetyl]amino]ethoxy]ethoxy]acetyl]amino]butanoyl]amino]butanoyl]-[Acb2,Leu10,Leu16,Lys17,Arg20,Glu21,Leu27,Lys28]-Glucagon amide] (H-H[Ac4c]QGTFTSDLSKYLDLKRAREFVQWLLK([γGlu-γGlu-AEEA-AEEA-γGlu-γGlu-C18 diacid])T-NH2; N-terminus assumed)
45 | 0.044 | CC(C)C[C@H](NC(=O)[C@H](CC(=O)O)NC(=O)[C@H](CC(C)C)NC(=O)[C@H](Cc1ccc(O)cc1)NC(=O)[C@H](CCCCN)NC(=O)[C@H](CO)NC(=O)[C@H](CC(C)C)NC(=O)[C@H](CC(=O)O)NC(=O)[C@H](CO)NC(=O)[C@@H](NC(=O)[C@H](Cc1ccccc1)NC(=O)[C@@H](NC(=O)CNC(=O)[C@H](CCC(N)=O)NC(=O)C1(NC(=O)[C@@H](N)Cc2c[nH]cn2)CCC1)[C@@H](C)O)[C@@H](C)O)C(=O)N[C@@H](CCCCN)C(=O)N[C@@H](CCCNC(=N)N)C(=O)N[C@@H](C)C(=O)N[C@@H](CCCNC(=N)N)C(=O)N[C@@H](CCC(=O)O)C(=O)N[C@@H](Cc1ccccc1)C(=O)N[C@H](C(=O)N[C@@H](CCC(N)=O)C(=O)N[C@@H](Cc1c[nH]c2ccccc12)C(=O)N[C@@H](CC(C)C)C(=O)N[C@@H](CC(C)C)C(=O)N[C@@H](CCCCNC(=O)CNC(=O)[C@H](CO)NC(=O)[C@H](CCC(=O)O)NC(=O)CNC(=O)[C@H](CO)NC(=O)CC[C@H](NC(=O)CC[C@H](NC(=O)CCCCCCCCCCCCCCCCC(=O)O)C(=O)O)C(=O)O)C(=O)N[C@H](C(N)=O)[C@@H](C)O)C(C)C [Example 48] (I: H-H[Ac4c]QGTFTSDLSKYLDLKRAREFVQWLLKT-NH2 / II: {C18 diacid-γGlu-γGlu}-SGESG; amide I:28-II:C; N-terminus assumed)
45 | 0.017 | CC(C)C[C@H](NC(=O)[C@H](CC(=O)O)NC(=O)[C@H](CC(C)C)NC(=O)[C@H](Cc1ccc(O)cc1)NC(=O)[C@H](CCCCN)NC(=O)[C@H](CO)NC(=O)[C@H](CC(C)C)NC(=O)[C@H](CC(=O)O)NC(=O)[C@H](CO)NC(=O)[C@@H](NC(=O)[C@H](Cc1ccccc1)NC(=O)[C@@H](NC(=O)CNC(=O)[C@H](CCC(N)=O)NC(=O)C1(NC(=O)[C@@H](N)Cc2c[nH]cn2)CCC1)[C@@H](C)O)[C@@H](C)O)C(=O)N[C@@H](CCCNC(=N)N)C(=O)N[C@@H](CCCNC(=N)N)C(=O)N[C@@H](C)C(=O)N[C@@H](CCCNC(=N)N)C(=O)N[C@@H](CCC(=O)O)C(=O)N[C@@H](Cc1ccccc1)C(=O)N[C@H](C(=O)N[C@@H](CCC(N)=O)C(=O)N[C@@H](Cc1c[nH]c2ccccc12)C(=O)N[C@@H](CC(C)C)C(=O)N[C@@H](CC(C)C)C(=O)N[C@@H](CCCCNC(=O)CC[C@H](NC(=O)CC[C@H](NC(=O)COCCOCCNC(=O)COCCOCCNC(=O)CC[C@H](NC(=O)CC[C@H](NC(=O)CCCCCCCCCCCCCCCCC(=O)O)C(=O)O)C(=O)O)C(=O)O)C(=O)O)C(=O)N[C@H](C(N)=O)[C@@H](C)O)C(C)C [Example 49, N^ε28-[(4S)-4-carboxy-4-[[(4S)-4-carboxy-4-[[2-[2-[2-[[2-[2-[2-[[(4S)-4-carboxy-4-[[(4S)-4-carboxy-4-(17-carboxyheptadecanoylamino)butanoyl]amino]butanoyl]amino]ethoxy]ethoxy]acetyl]amino]ethoxy]ethoxy]acetyl]amino]butanoyl]amino]butanoyl]-[Acb2,Leu10,Leu16,Arg20,Glu21,Leu27,Lys28]-Glucagon amide] (H-H[Ac4c]QGTFTSDLSKYLDLRRAREFVQWLLK([γGlu-γGlu-AEEA-AEEA-γGlu-γGlu-C18 diacid])T-NH2; N-terminus assumed)
